BindingDB's records for PubMed 10604951 (University of Colorado, 2000)
pKi: −log10 of the molar value.

Molecular target: Glutamate receptor ionotropic, NMDA 1 (Rattus norvegicus, UniProt P35439)

pKi, < 5.00:
NC(=O)N1c2ccccc2C=Cc2ccccc21 [5H-dibenzo[b,f]azepine-5-carboxamide]
O=C(O)c1cc(NC(=O)N(c2ccccc2)c2ccccc2)c2c(Cl)cc(Cl)cc2n1 [DCUKA]
COC(=O)c1cc(NC(=O)N(c2ccccc2)c2ccccc2)c2c(Cl)cc(Cl)cc2n1 [DCUK-Ome]
